What all share (assay type): functional
The nature of assay [1]: Antidiabetic activity in 24 hrs serum-deprived rat glomerular mesangial cells assessed as reduction of high glucose-induced fibronectin and beta-actin expression ratio at 0.5 uM after 48 hrs by Western blot analysis relative to control. A general note: In western blotting, separated proteins are transferred to a membrane and probed.
Assay [2] is described as follows: Antidiabetic activity in 24 hrs serum-deprived rat glomerular mesangial cells assessed as reduction of high glucose-induced fibronectin and beta-actin expression ratio at 0.25 uM after 48 hrs by Western blot analysis relative to control.
A short description of assay [3]: Antidiabetic activity in 24 hrs serum-deprived rat glomerular mesangial cells assessed as reduction of high glucose-induced fibronectin and beta-actin expression ratio at 5 uM after 48 hrs by Western blot analysis relative to control.
The nature of assay [4]: Antidiabetic activity in 24 hrs serum-deprived rat glomerular mesangial cells assessed as reduction of high glucose-induced fibronectin and beta-actin expression ratio at 1 uM after 48 hrs by Western blot analysis relative to control.
The species entered for assay [5] is Rattus norvegicus. The experiment in a line: Protection against high glucose-induced increase of cell proliferation in rat glomerular mesangial cells after 48 hrs by MTT assay. In general terms: Tetrazolium assays rely on reduction of a dye to a coloured formazan, in cell work by metabolically active cells.
The nature of assay [6]: Antidiabetic activity in 24 hrs serum-deprived rat glomerular mesangial cells assessed as reduction of high glucose-induced ROS production at 5 uM after 48 hrs by DHE staining.
A short description of assay [7]: Antidiabetic activity in 24 hrs serum-deprived rat glomerular mesangial cells assessed as reduction of high glucose-induced ROS production at 1 uM after 48 hrs by DHE staining.

Each structure is given as a SMILES string. Activity calls are given as the source filed them. No cut-off for these calls is given here.

On to `CCOC(=O)[C@H]1CC(=O)C[C@H]1C(=O)OCC`, for which the Ratio in assay [1] stood at 79.8; in assay [2], 81.8; in assay [3], 84.2; in assay [4], 88.9.
As to `Cc1cn(CCC(=O)NN)c(=O)nc1O`, the Ratio in assay [1] stood at 89.2; in assay [3], 102; in assay [4], 94.
Consider `Cc1cn(CCC(=O)NN=C2CCCC2)c(=O)nc1O`, for which the figures for the Ratio in assay [1], in assay [3] and in assay [4] were 118, 127 and 126, respectively.
On the same counts, the results for `NNC(=O)CCn1ccc(N)nc1=O` are 76.5, 80.8 and 81.6.
In the case of `NNC(=O)CCn1ccc(O)nc1=O`, the result in assay [5] and in assay [6] was Active. For the same compound, the values for the Ratio in assay [1], in assay [3] and in assay [4] were 101, 85.4 and 80.5, respectively.
Take `Nc1ccn(CCC(=O)NN=C2CCCC2)c(=O)n1`: the Ratio amounted to 218 in assay [1], 275 in assay [3] and 213 in assay [4].
For `O=C(CCn1ccc(O)nc1=O)NN=C1CCCC1`, the result in assay [5] and in assay [7] was Active. Further, the Ratio in assay [1] stood at 100; in assay [3], 64.3; in assay [4] it was 84.8.
Turning to `O=C1CCCC1`, the Ratio amounted to 101 in assay [1], 82.8 in assay [2], 129 in assay [3] and 114 in assay [4].
For the compound `O=C1C[C@H](C(=O)O)[C@H](C(=O)O)C1`, the Ratio in assay [1] was 149; in assay [2], 129; in assay [3], 121; in assay [4] it was 145.
With `CCOC(=O)C1CCC/C1=N\NC(=O)CCn1cc(C)c(O)nc1=O` (racemic), in assay [5], the result was inactive. Besides, the Ratio is 88.8 in assay [1], 91.6 in assay [3] and 96.5 in assay [4].
With `CCOC(=O)C1CCC/C1=N\NC(=O)CCn1ccc(N)nc1=O` (racemic), the Ratio turned out to be 111 in assay [1], 102 in assay [3] and 119 in assay [4].
The corresponding values for `CCOC(=O)C1CCC/C1=N\NC(=O)CCn1ccc(O)nc1=O` (racemic) are 127, 106 and 126.
Consider `CCOC(=O)C1CCCC1=O` (racemic), for which the Ratio in assay [1] stood at 110; in assay [2] it was 109; in assay [3] it was 137; in assay [4], 88.3.
For the compound `CCOC(=O)[C@@H]1CC(=NNC(=O)CCn2cc(C)c(O)nc2=O)C[C@H]1C(=O)OCC` (racemic), the Ratio was 94.2 in assay [1], 87.6 in assay [3] and 90.8 in assay [4].
For the compound `CCOC(=O)[C@@H]1CC(=NNC(=O)CCn2ccc(N)nc2=O)C[C@H]1C(=O)OCC` (racemic), the result in assay [5] was inactive. The Ratio in assay [1] stood at 98.2; in assay [3], 80.6; in assay [4], 96.1.
Regarding `CCOC(=O)[C@@H]1CC(=NNC(=O)CCn2ccc(O)nc2=O)C[C@H]1C(=O)OCC` (racemic), the outcome in assay [5] and in assay [7] was Active. The Ratio in assay [1] amounted to 145; in assay [3], 94; in assay [4] it was 132.
As to `CCOC(=O)[C@@H]1CC(=O)C[C@H]1C(=O)OCC` (racemic), the Ratio in assay [1] is 90.2; in assay [2], 82.4; in assay [3], 79.7; in assay [4] it was 86.3.
On to `CCOC(=O)[C@H]1C/C(=N\NC(=O)CCn2cc(C)c(O)nc2=O)C[C@H]1C(=O)OCC` (racemic), for which the Ratio in assay [1] stood at 91.9; in assay [3] it was 81.1; in assay [4], 97.9.
On the same counts, the results for `CCOC(=O)[C@H]1C/C(=N\NC(=O)CCn2ccc(N)nc2=O)C[C@H]1C(=O)OCC` (racemic) are 95.1, 125 and 91.
In the case of `CCOC(=O)[C@H]1C/C(=N\NC(=O)CCn2ccc(O)nc2=O)C[C@H]1C(=O)OCC` (racemic), the outcome in assay [5] was inactive. Further, the results for the Ratio in assay [1], in assay [3] and in assay [4] were 97.5, 76.5 and 93.7, respectively.
In the case of `Cc1cn(CCC(=O)N/N=C2\C[C@H](C(=O)O)[C@H](C(=O)O)C2)c(=O)nc1O` (racemic), the outcome in assay [5] and in assay [7] was Active. For the same compound, the Ratio in assay [1] came to 80.1; in assay [3] it was 70.7; in assay [4] it was 72.
On to `Cc1cn(CCC(=O)NN=C2C[C@@H](C(=O)O)[C@H](C(=O)O)C2)c(=O)nc1O` (racemic), for which the outcome in assay [5] and in assay [7] was Active. Further, the Ratio is 78.4 in assay [1], 63.1 in assay [3] and 64.6 in assay [4].
With `Nc1ccn(CCC(=O)N/N=C2\C[C@H](C(=O)O)[C@H](C(=O)O)C2)c(=O)n1` (racemic), the Ratio in assay [1] amounted to 143; in assay [2], 136; in assay [3] it was 113; in assay [4], 142.
Turning to `Nc1ccn(CCC(=O)NN=C2C[C@@H](C(=O)O)[C@H](C(=O)O)C2)c(=O)n1` (racemic), the Ratio stood at 126 in assay [1], 123 in assay [2], 107 in assay [3] and 128 in assay [4].
The corresponding values for `O=C(CCn1ccc(O)nc1=O)N/N=C1\C[C@H](C(=O)O)[C@H](C(=O)O)C1` (racemic) are 80, 75.1, 117 and 96.7.
The corresponding values for `O=C(CCn1ccc(O)nc1=O)NN=C1C[C@@H](C(=O)O)[C@H](C(=O)O)C1` (racemic) are 116, 132, 96.9 and 115.
The corresponding values for `O=C1C[C@@H](C(=O)O)[C@H](C(=O)O)C1` (racemic) are 143, 135, 124 and 149.

Source of the values: ChEMBL document CHEMBL3745655, “Novel carbocyclic nucleoside analogs suppress glomerular mesangial cells proliferation and matrix protein accumulation through ROS-dependent mechanism in the diabetic milieu. II. Acylhydrazone-functionalized pyrimidines” (Bioorg Med Chem Lett, 2016).
